{"source": "patent US20260174860A1", "about": "“HYBRID COMPOUNDS OF SCLAREOL AND DOXORUBICIN, THEIR SYNTHESIS AND APPLICATION” (INSTITUTE FOR BIOLOGICAL RESEARCH \"SINISA STANKOVIC\" - …, priority 2023, published 2026)", "key": {"[1]": {"molecular_target": "T1, P-glycoprotein activity in NCI-H460/R (Homo sapiens, UniProt P08183)", "T1 construct": "obtained by successive exposure of NCI-H460 cells to increasing concentrations of DOX; endogenous in cells; host or cells: NCI-H460/R (doxorubicin-selected from NCI-H460)", "T1 sequence (P08183 whole entry)": "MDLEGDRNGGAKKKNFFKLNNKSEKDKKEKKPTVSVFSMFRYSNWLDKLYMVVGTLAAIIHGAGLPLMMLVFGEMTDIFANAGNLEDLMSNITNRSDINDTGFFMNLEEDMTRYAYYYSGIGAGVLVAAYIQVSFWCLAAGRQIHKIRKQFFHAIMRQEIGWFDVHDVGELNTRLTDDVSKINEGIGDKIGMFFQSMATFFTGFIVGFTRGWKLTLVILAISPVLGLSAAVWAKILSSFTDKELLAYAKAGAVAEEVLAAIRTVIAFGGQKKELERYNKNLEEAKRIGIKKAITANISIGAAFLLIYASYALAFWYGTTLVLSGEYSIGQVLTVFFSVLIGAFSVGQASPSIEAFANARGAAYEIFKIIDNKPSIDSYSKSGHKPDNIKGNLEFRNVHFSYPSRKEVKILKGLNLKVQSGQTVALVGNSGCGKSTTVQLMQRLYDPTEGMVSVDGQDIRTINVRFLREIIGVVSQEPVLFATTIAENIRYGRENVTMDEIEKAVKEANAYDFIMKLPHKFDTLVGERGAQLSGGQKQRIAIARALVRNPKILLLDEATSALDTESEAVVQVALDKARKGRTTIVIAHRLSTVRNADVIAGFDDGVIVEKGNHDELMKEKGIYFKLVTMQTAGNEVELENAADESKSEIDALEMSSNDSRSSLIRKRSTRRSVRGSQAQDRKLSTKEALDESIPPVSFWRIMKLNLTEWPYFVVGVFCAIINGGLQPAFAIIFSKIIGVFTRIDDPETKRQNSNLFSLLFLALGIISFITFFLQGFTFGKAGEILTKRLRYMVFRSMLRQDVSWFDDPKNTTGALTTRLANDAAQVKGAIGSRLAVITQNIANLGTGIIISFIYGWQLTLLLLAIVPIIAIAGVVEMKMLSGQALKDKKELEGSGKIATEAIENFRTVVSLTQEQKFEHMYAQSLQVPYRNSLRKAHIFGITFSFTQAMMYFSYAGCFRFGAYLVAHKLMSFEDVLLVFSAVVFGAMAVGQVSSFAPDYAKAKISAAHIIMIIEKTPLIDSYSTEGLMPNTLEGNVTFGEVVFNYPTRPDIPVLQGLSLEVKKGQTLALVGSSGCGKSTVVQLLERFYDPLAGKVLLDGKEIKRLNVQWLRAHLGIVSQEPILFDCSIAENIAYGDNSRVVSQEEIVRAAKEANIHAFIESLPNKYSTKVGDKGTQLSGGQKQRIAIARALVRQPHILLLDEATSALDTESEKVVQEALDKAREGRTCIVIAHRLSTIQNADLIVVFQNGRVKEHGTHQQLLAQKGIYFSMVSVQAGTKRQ", "test": "DOX and rhodamine 123 accumulation test, flow cytometry", "assay_type": "cell-based", "method": "(§1) • a) First, DOX accumulation test was performed on three glioblastoma cell lines, U87, U87-TxR, and U251. Cells were trypsinized and counted, and then 100,000 cells per sample were collected in a tube for flow cytometry and resuspended in 500 μL of culture medium. Cells were treated with 20 μM and 50 µM SC. Immediately after SC treatment, cells were treated with 20 μM DOX, and samples were incubated at 37° C. in a humid atmosphere with 5% CO2 for 60 min. After the accumulation period, the samples were centrifuged, washed twice with cold Phosphate Buffered Saline (PBS), and finally resuspended in 1 mL of PBS. The fluorescence of the samples was read on the FL2 (red channel) of a cytofluorimeter (Partec, Munster, Germany), and the results were analyzed with the software package Summit 4.3. • b) Secondly, DOX and rhodamine 123 accumulation test was performed on non-small cell lung carcinoma cell lines NCI-H460 and NCI-H460/R. Cells were trypsinized and counted, and then 100,000 cells per sample were collected in a tube for flow cytometry and resuspended in 500 μl of culture medium. Cells were treated with 50 μM SC. Immediately after treatment, 5 μM Rho123 was added to one group of samples and the other 20 μM DOX. […] The samples were analyzed using a flow cytometer, reading for rhodamine 123 on FL1 (green channel) and DOX on FL2 (red channel). […]"}, "[2]": {"test_system": "glioblastoma cell lines U87, U87-TxR and U251", "test": "DOX accumulation test, flow cytometry", "assay_type": "cell-based, human", "conditions": "20 μM and 50 μM SC with 20 μM DOX, 60 min", "method": "as §1"}, "[3]": {"test_system": "P-glycoprotein-deficient NCI-H460 cells", "test": "DOX and rhodamine 123 accumulation test, flow cytometry", "assay_type": "cell-based, human", "conditions": "50 μM SC", "method": "as §1"}}}
{"compound": "C=C[C@](C)(O)CC[C@@H]1[C@@]2(C)CCCC(C)(C)[C@@H]2CC[C@@]1(C)O", "note": "[SC, sclareol]", "values": [{"measurement": "accumulation of DOX", "setting": "[1]; 50 μM SC with 20 μM DOX, 60 min", "value": "increased"}, {"measurement": "accumulation of rhodamine 123 / P-glycoprotein activity", "setting": "[1]; 50 μM SC with rhodamine 123, 30 min", "value": "inhibition of P-glycoprotein activity"}, {"measurement": "accumulation of DOX", "setting": "[2]", "value": "increase the accumulation of DOX"}, {"measurement": "DOX or rhodamine 123 accumulation", "setting": "[3]", "value": "did not show any increase"}]}
